A short description of data set [1]: Inhibition of c-MYC expression in human JJN3R cells measured after 4 hrs. Format: functional, cell-based. As to conditions: JJN-3R.
The nature of data set [2]: Antitumour activity against human JJN3R cells measured after 72 hrs by MTS assay. Format: functional, cell-based. Conditions: JJN-3R.
Data set [3] is described as follows: Metabolic stability in human liver microsomes assessed as parent compound remaining at 0.5 uM after 10 mins. Format: ADME, Microsome. Conditions: read-out: Stability.
The nature of data set [4]: Metabolic stability in mouse liver microsomes assessed as parent compound remaining at 0.5 uM after 10 mins. Format: ADME, Microsome. Conditions: read-out: Stability.
A short description of data set [5]: Permeability coefficient of the compound by PAMPA. Format: ADME. Conditions: read-out: permeability.
A short description of data set [6]: Permeability coefficient across apical to basolateral side in human Caco-2 cells. Format: ADME, cell-based. As to conditions: read-out: permeability.
Data set [7] is described as follows: Permeability coefficient across basolateral to apical side in human Caco-2 cells. Format: ADME, cell-based. Conditions: read-out: permeability.
The nature of data set [8]: Cmax in mouse at 30 mg/kg, po. Format: ADME, organism-based. Details: dose 30 mg/kg, route po. Conditions: in vivo.
Data set [9] can be described thus: AUC (0 to 7 hrs) in mouse at 30 mg/kg, po. Format: ADME, organism-based. Details: time < 7 hr, dose 30 mg/kg, route po. Conditions: in vivo.
Data set [10] concerns the target Bromodomain-containing protein 4 (Homo sapiens, UniProt O60885). In words: Inhibition of human BRD4 (1 to 477 residues) measured after 60 mins by TR-FRET assay.
A short description of data set [11]: Efflux ratio of permeability in human Caco-2 cells. Format: ADME, cell-based.
Data set [12] deals with Bromodomain-containing protein 2 (Homo sapiens, UniProt P25440). Put plainly: Inhibition of human BRD2 measured by TR-FRET assay.
Chain of Bromodomain-containing protein 2 (P25440 whole entry): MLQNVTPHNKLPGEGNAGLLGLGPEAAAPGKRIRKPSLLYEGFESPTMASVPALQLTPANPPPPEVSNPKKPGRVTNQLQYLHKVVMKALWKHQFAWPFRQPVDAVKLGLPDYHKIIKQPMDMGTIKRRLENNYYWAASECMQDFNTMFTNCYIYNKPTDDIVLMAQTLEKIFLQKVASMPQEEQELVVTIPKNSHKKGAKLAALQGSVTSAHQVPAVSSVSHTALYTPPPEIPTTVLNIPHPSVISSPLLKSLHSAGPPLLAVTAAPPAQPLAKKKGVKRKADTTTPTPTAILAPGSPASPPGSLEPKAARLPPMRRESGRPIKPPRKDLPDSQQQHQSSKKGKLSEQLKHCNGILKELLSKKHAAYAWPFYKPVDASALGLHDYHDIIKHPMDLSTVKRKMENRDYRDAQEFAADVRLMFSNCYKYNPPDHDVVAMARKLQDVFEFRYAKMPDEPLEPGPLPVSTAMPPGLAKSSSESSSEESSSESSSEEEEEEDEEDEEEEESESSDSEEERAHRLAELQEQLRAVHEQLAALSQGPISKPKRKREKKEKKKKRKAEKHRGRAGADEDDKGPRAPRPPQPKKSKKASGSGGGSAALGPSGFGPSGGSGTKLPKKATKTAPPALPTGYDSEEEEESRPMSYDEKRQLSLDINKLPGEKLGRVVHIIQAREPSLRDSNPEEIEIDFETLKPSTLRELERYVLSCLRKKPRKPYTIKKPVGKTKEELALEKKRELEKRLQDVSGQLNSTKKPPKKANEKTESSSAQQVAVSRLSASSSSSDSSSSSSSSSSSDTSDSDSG
For data set [13], the target named is Bromodomain-containing protein 3 (Homo sapiens, UniProt Q15059). Put plainly: Inhibition of human BRD3 measured by TR-FRET assay.
Chain of Bromodomain-containing protein 3 (Q15059 whole entry): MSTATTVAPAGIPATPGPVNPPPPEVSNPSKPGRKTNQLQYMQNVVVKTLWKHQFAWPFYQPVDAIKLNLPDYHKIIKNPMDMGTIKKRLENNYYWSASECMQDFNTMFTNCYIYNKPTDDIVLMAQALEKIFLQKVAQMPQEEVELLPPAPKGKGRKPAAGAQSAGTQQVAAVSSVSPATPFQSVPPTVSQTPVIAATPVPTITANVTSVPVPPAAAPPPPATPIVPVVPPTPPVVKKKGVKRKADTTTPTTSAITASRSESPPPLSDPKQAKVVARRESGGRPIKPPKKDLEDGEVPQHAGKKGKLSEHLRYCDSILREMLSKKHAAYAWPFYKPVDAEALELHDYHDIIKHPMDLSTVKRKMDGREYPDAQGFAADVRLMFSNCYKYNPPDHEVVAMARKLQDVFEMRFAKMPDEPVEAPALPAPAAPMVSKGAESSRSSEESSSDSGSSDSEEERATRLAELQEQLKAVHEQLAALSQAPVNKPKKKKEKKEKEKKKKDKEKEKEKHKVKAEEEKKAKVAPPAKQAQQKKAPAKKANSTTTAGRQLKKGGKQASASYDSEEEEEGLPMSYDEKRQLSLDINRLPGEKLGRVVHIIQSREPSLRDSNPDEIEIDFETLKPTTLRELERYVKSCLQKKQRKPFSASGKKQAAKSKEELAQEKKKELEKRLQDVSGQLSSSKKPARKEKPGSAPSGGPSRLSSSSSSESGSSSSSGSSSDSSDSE
Data set [14] concerns the target Cytochrome P450 1A2 (Homo sapiens, UniProt P05177). In words: Inhibition of CYP1A2 (unknown origin). Format: ADME.
The target of data set [15] is Cytochrome P450 2C9 (Homo sapiens, UniProt P11712). Put plainly: Inhibition of CYP2C9 (unknown origin). Format: ADME.
Chain of Cytochrome P450 2C9 (P11712 whole entry): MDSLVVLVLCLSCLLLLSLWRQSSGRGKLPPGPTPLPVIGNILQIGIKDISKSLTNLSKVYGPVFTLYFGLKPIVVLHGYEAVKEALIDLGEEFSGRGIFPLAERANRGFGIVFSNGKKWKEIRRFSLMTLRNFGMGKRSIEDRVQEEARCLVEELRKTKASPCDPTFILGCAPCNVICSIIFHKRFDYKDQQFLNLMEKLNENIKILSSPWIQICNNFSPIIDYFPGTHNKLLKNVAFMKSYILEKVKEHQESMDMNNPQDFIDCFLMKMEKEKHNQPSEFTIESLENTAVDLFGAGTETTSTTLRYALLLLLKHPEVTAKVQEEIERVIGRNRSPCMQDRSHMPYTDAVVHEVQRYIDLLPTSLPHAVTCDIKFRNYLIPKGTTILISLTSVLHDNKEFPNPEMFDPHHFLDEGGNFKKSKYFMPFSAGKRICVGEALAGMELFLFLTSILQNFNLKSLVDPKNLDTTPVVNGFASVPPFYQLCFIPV
The target of data set [16] is Cytochrome P450 2C19 (Homo sapiens, UniProt P33261). Put plainly: Inhibition of CYP2C19 (unknown origin). Format: ADME.
Chain of Cytochrome P450 2C19 (P33261 whole entry): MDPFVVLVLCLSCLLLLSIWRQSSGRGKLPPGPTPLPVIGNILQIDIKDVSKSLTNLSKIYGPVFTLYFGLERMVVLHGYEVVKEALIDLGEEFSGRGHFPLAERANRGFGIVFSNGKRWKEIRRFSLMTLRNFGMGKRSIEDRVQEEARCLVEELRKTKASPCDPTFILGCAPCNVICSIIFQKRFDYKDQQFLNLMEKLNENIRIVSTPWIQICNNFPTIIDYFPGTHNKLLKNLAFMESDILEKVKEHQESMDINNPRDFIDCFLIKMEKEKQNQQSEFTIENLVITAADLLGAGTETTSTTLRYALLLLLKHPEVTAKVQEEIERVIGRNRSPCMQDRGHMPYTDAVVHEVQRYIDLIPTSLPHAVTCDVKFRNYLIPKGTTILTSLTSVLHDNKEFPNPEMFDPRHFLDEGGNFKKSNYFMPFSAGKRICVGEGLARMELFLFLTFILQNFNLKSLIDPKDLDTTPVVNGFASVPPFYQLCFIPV
Data set [17] deals with Cytochrome P450 2D6 (Homo sapiens, UniProt P10635). In words: Inhibition of CYP2D6 (unknown origin). Format: ADME.
The target of data set [18] is Cytochrome P450 3A4 (Homo sapiens, UniProt P08684). In words: Inhibition of CYP3A4 (unknown origin). Format: ADME.
Chain of Cytochrome P450 3A4 (P08684 whole entry): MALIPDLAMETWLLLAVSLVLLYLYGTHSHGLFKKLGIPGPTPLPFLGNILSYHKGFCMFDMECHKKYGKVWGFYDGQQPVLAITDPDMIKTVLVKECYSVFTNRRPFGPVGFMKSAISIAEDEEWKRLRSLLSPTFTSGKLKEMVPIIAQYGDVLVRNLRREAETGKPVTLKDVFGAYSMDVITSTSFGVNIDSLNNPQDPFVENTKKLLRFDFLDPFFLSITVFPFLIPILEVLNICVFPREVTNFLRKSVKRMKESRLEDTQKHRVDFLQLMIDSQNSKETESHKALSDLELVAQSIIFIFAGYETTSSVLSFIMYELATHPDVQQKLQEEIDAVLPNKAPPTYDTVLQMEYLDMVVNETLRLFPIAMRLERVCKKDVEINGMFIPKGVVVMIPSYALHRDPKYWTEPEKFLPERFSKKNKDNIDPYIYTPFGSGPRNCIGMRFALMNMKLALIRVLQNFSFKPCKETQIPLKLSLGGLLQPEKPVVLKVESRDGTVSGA
For data set [19], the target named is Voltage-gated inwardly rectifying potassium channel KCNH2 (Homo sapiens, UniProt Q12809). In words: Inhibition of human ERG by flux assay.
Chain of Voltage-gated inwardly rectifying potassium channel KCNH2 (Q12809 whole entry): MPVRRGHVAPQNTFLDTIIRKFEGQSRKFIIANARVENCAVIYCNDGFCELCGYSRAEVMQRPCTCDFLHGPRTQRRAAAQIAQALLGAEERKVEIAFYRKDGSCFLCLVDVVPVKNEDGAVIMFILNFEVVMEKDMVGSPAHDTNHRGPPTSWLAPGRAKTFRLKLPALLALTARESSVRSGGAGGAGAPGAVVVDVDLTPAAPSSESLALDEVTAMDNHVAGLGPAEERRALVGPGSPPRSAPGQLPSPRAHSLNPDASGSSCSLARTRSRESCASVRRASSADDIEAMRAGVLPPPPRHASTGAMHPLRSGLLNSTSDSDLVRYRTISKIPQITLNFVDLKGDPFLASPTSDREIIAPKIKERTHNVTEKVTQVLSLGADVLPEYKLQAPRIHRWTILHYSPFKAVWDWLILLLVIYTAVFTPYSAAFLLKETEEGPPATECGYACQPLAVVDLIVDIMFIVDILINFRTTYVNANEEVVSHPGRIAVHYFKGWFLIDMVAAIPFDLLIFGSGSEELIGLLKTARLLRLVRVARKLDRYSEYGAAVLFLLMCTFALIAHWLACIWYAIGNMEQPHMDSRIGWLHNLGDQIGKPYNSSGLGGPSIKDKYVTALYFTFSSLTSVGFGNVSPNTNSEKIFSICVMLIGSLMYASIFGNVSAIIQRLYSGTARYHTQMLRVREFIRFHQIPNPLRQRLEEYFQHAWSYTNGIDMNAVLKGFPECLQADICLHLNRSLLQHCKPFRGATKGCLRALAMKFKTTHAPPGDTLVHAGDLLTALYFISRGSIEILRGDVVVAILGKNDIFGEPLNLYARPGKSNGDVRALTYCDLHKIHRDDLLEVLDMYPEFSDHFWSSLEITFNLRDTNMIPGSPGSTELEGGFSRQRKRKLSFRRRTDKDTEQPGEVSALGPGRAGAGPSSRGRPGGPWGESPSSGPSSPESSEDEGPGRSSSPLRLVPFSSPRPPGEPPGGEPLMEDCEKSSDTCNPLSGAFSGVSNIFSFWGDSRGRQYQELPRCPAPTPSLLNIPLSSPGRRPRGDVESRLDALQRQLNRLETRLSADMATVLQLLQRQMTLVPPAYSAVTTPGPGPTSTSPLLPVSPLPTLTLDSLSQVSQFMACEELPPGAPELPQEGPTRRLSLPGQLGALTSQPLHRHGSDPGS

Data on 17 compounds can be found in ChEMBL document CHEMBL5053512, “Discovery and Preclinical Pharmacology of an Oral Bromodomain and Extra-Terminal (BET) Inhibitor Using Scaffold-Hopping and Structure-Guided Drug Design” (J Med Chem, 2021).

Each structure is given as a SMILES string.

Chain of Cytochrome P450 1A2 (P05177 whole entry): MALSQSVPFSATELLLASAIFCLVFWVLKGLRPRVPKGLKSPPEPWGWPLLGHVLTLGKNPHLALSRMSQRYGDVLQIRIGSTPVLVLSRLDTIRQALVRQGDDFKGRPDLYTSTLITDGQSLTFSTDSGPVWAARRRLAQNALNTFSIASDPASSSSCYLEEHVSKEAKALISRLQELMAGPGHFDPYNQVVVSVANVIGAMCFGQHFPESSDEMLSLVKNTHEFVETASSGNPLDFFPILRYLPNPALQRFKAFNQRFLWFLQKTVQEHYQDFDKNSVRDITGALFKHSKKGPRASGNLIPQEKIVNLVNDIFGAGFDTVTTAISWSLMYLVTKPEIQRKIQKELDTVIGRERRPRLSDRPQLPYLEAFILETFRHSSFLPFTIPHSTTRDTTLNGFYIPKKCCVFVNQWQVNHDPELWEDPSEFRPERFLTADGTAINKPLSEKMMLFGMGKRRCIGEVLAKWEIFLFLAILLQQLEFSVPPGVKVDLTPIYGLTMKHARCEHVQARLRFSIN

Consider `Cc1noc(C)c1-c1cc(C(N)=O)c2c3ccc(C(C)(C)O)cc3n(Cc3ccccc3)c2c1`, for which the IC50 came to 6.2 nM in data set [1] and 35 nM in data set [2]. For the same compound, the remaining at 10 min, 0.5 µM was determined as 58% in [3] and 62% in data set [4]. Also, in [5], the Papp is 84.9 ×10⁻⁶ cm/s. In addition, in data set [6], the Papp A→B turned out to be 7.6 ×10⁻⁶ cm/s. The Papp B→A in data set [7] was found to be 20.2 ×10⁻⁶ cm/s. The Cmax in data set [8] came to 7.1 µM. For the same compound, the exposure AUC(0-t) at 7 h in data set [9] was determined as 27.1 µM·h.
With `Cc1noc(C)c1-c1cc(C(N)=O)c2c3cc(C(=O)N4C[C@@H](C)O[C@@H](C)C4)ccc3n(Cc3ccccc3)c2c1`, the figures for the 50% inhibitory concentration (IC50) in data set [10], in data set [1] and in data set [2] were 4.2 nM, 13 nM and 38 nM, respectively. Besides, the remaining at 10 min, 0.5 µM is 9% in [3] and 19% in data set [4]. Also, the Papp in data set [5] was determined as 80.9 ×10⁻⁶ cm/s.
As for `Cc1noc(C)c1-c1cc(C(N)=O)c2c3cc(C(C)(C)O)ccc3n(Cc3ccccc3)c2c1`, the IC50 came to 4.5 nM in [10], 23 nM in data set [1] and 95 nM in [2]. The Papp in data set [5] was 74.9 ×10⁻⁶ cm/s.
As to `Cc1noc(C)c1-c1cc(C(N)=O)c2c3ccc(C(C)(C)O)cc3n([C@@H](c3ccccc3)C3CCOCC3)c2c1`, the half-maximal inhibitory concentration (IC50) came out at 5.4 nM in [10], 10 nM in data set [1] and 46 nM in data set [2]. The remaining at 10 min, 0.5 µM in data set [3] came out at 24%; in data set [4], 0%. The Papp in data set [5] turned out to be 58.4 ×10⁻⁶ cm/s.
As for `Cc1noc(C)c1-c1cc(C(N)=O)c2c3ccc(C(C)(C)O)cc3n(CC3CCOCC3)c2c1`, the IC50 in data set [10] was determined as 9.5 nM; in data set [1] it was 23 nM; in data set [2], 128 nM. Moreover, the remaining at 10 min, 0.5 µM in data set [3] was determined as 75%; in data set [4] it was 55%. Besides, the Papp in data set [5] turned out to be 40.2 ×10⁻⁶ cm/s.
With `Cc1noc(C)c1-c1cc(C(N)=O)c2c3ccc(C(C)(C)O)cc3n([C@H](c3ccccc3)C3CCOCC3)c2c1`, the IC50 in data set [10] came to 1 nM; in data set [1], 0.9 nM; in data set [2] it was 3.1 nM. The remaining at 10 min, 0.5 µM in data set [3] came to 52%; in data set [4] it was 20%. Moreover, the Papp in data set [5] came out at 67.1 ×10⁻⁶ cm/s. Further, the Papp A→B in data set [6] amounted to 3.4 ×10⁻⁶ cm/s. In addition, the Papp B→A in data set [7] was 36.4 ×10⁻⁶ cm/s. Besides, in data set [8], the highest level (Cmax) was 0.4 µM. For the same compound, the AUC(0-t) at 7 h in data set [9] was determined as 1 µM·h.
As for `Cc1nocc1-c1cc(C(N)=O)c2c(c1)c1ccc(C(=O)N3C[C@@H](C)O[C@@H](C)C3)cc1n2CC1CC1`, the figures for the half-maximal inhibitory concentration (IC50) in data set [10], in [1] and in data set [2] were 131 nM, 268 nM and 2960 nM, respectively.
Regarding `Cc1noc(C)c1-c1cc(C(N)=O)c2c3ccc(C(C)(C)O)cc3n([C@H](c3ccc(F)cc3)C3CCOCC3)c2c1`, the figures for the IC50 in [10], in data set [1] and in [2] were 1.9 nM, 0.4 nM and 3.1 nM, respectively. In addition, the remaining at 10 min, 0.5 µM in data set [3] turned out to be 52%; in data set [4], 33%. Besides, the Papp in [5] is 70.2 ×10⁻⁶ cm/s. Moreover, in data set [8], the Cmax amounted to 0.9 µM. In data set [9], this compound showed an AUC(0-t) at 7 h of 4.3 µM·h. In addition, in data set [11], the efflux ratio was determined as 6.1.
In the case of `Cc1noc(C)c1-c1cc(C(N)=O)c2[nH]c3cc(C(=O)N4CCOCC4)ccc3c2c1`, the half-maximal inhibitory concentration (IC50) in [10] was 712 nM; in data set [1], 1160 nM; in data set [2], over 2500 nM.
For `Cc1nnn(C)c1-c1cc(C(N)=O)c2c(c1)c1ccc(C(=O)N3C[C@@H](C)O[C@@H](C)C3)cc1n2CC1CC1`, in that order: 35 nM, 291 nM and 796 nM.
Consider `Cc1noc(C)c1-c1cnc2c3ccc(C(C)(C)O)cc3n([C@H](c3ccccc3)C3CCOCC3)c2c1`, for which the IC50 in data set [10] is 1.9 nM; in data set [1] it was 1.5 nM; in [2], 8.4 nM; in data set [12], 1.7 nM; in data set [13] it was 1.9 nM; in data set [14] it was over 20000 nM. Also, the IC50 in [15] was 4100 nM; in data set [16] it was 1500 nM; in [17], over 20000 nM; in [18] it was over 20000 nM; in [19] it was 51000 nM. The figures for the remaining at 10 min, 0.5 µM in [3] and in data set [4] were 54% and 42%, respectively. Moreover, the Papp in [5] turned out to be 98.4 ×10⁻⁶ cm/s. In addition, the Papp A→B in data set [6] is 26.3 ×10⁻⁶ cm/s. For the same compound, the Papp B→A in data set [7] came to 22.9 ×10⁻⁶ cm/s. In [8], this compound returned a Cmax of 9.2 µM. Moreover, the AUC(0-t) at 7 h in data set [9] worked out at 45.7 µM·h. Also, the efflux ratio in data set [11] turned out to be 0.9.
In the case of `Cc1noc(C)c1-c1cc(C(N)=O)c2c(c1)c1ccc(C(=O)N3C[C@@H](C)O[C@@H](C)C3)cc1n2CC1CC1`, the IC50 in data set [10] stood at 23 nM; in data set [1], 51 nM; in data set [2], 525 nM.
In the same order, the values of `Cc1noc(C)c1-c1cc(C(N)=O)c2c(c1)c1ccc(C(=O)N3CCOCC3)cc1n2CC1CC1` are 39 nM, 93 nM and 414 nM.
`Cc1n[nH]c(C)c1-c1cc(C(N)=O)c2c(c1)c1ccc(C(=O)N3C[C@@H](C)O[C@@H](C)C3)cc1n2CC1CC1`: the IC50 in data set [10] came out at 530 nM; in data set [1], 1240 nM; in data set [2] it was 7600 nM.
For `Cc1noc(C)c1-c1cc(C(N)=O)c2c3ccc(C(C)(C)O)cc3n(C(c3ccccc3)c3ccccc3)c2c1`, the IC50 turned out to be 1.5 nM in data set [10], 3.9 nM in data set [1] and 11 nM in [2]. Further, the remaining at 10 min, 0.5 µM came out at 13% in data set [3] and 26% in [4]. Also, the Papp in data set [5] came out at 68.2 ×10⁻⁶ cm/s.
With `Cc1oncc1-c1cc(C(N)=O)c2c(c1)c1ccc(C(=O)N3C[C@@H](C)O[C@@H](C)C3)cc1n2CC1CC1`, the IC50 was 292 nM in [10], 645 nM in data set [1] and 3530 nM in data set [2].
As for `Cc1noc(C)c1-c1cc(C(N)=O)c2c3cc(C(=O)N4C[C@@H](C)O[C@@H](C)C4)ccc3n(CC3CC3)c2c1`, the results for the concentration for half-maximal inhibition (IC50) in [10], in [1] and in [2] were 69 nM, 259 nM and 422 nM, respectively.
